Experimental data reported in EPA's ToxValDB 9.5 (doi:10.2903/j.efsa.2016.4452).

What was measured:
[1] = system: Canidae; conditions: chronic; duration: 1 years; oral; Dog Other; organ weight
[2] = system: Colinus virginianus; conditions: acute, oral, diet, mortality
[3] = system: Tagia sp.
[4] = system: Lepomis macrochirus; conditions: acute; duration: 96 hours; mortality
[5] = system: Folsomia candida; conditions: chronic/long-term; duration: 28 days
[6] = system: Bibionidae; conditions: chronic/long-term; duration: 28 days; reproduction
[7] = system: Daphnia magna; conditions: chronic/long-term; duration: 21 days; reproduction
[8] = system: Apis mellifera; conditions: acute, mortality
[9] = system: Oryctolagus sp.; conditions: reproduction developmental; no effects
[10] = system: Rattus norvegicus
[11] = system: Pimephales promelas; conditions: chronic/long-term; duration: 28 days; reproduction
[12] = system: Anas platyrhynchos; conditions: reproductive; duration: 20 weeks; oral; feed; M
[13] = system: Aphidius rhopalosiphi; test: LR50; higher = less toxic; conditions: not reported; mortality

| Structure (SMILES) | LOAEL [1] [mg/kg-day] | LD50 ([2]; duration: 8 days) [mg/kg-day] | LD50 ([2]; duration: 14 days) [mg/kg-day] | LC50 ([3]; acute, duration: 14 days, mortality) [mg/kg] | NOEC ([3]; chronic/long-term, duration: 56 days) [mg/kg] | LC50 [4] [µg/mL] | NOEC [5] [mg/kg] | NOEC [6] [mg/kg] | NOEC [7] [mg/L] | LD50 ([8]; dermal) [µg/piece] | LD50 ([8]; oral, unspecified) [µg/piece] | NOAEL [9] [mg/kg-day] | LD50 ([10]; acute, oral, mortality) [mg/kg-day] | NOAEL ([10]; reproduction developmental, no effects) [mg/kg-day] | NOEC [11] [mg/L] | NOAEL [12] [mg/kg-day] | LR50 [13] [g/ha] |
| --- | --- | --- | --- | --- | --- | --- | --- | --- | --- | --- | --- | --- | --- | --- | --- | --- | --- |
| O=c1[nH]c(-c2cc(Br)nn2-c2ncccc2Cl)nc2c(Br)cc(Cl)cc12 [Cyclaniliprole metabolite (NSY-28)] | 1.29 | – | – | – | – | – | – | – | – | – | – | – | – | – | – | – | – |
| CC(NC(=O)c1cc(Cl)cc(Br)c1NC(=O)c1cc(Br)nn1-c1ncccc1Cl)C1CC1 (stereo not drawn) [Cyclaniliprole] | 1.29 | > 1000 | > 2000 | > 500 | 500 | > 0.15 | 1.25 | 0.061 | 0.015 | 0.486 | 0.194 | 1000 | > 2000 | 1000 | 0.2 | 2.7 | 0.507 |
